Assay results as given in ChEMBL document CHEMBL1201862, “PubChem BioAssay data set” (2004).
Active and inactive are the calls of the source.

How the values were obtained:
Vero = test: Vero E6 cell cytotoxicity, SAR follow-up, cytotoxicity control for West Nile virus antiviral project, synthesized analogs (AID 2244); format: functional; settings: Chlorocebus sabaeus
[1] = LGR2 antagonists, dose response, cell-based, HEK293, CRE-luciferase reporter, cherry pick, set 2 (AID 743343); format: functional;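 also: transfected cells were stimulated with diluted bursicon conditioned medium after compound addition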
[2] = luciferase reporter signal reduction – luminescence, H4-C neuroglioblastoma cells, dose response (AID 2458); format: functional, cell-based;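 also: H4 neuroglioblastoma cells stably carrying a luciferase reporter gene fusion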
[3] = target: T1, Heat shock factor protein 1 (Mus musculus, UniProt P38532); test: inhibition of MG132-induced HSE-luciferase signal, confirmation, cell-based, NIH3T3, luminescence, dose retest (AID 2382); format: functional;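 also: NIH3T3 fibroblasts with HSF1-driven luciferase reporter stressed by proteasome inhibitor MG132; luminescence from HSF1-driven luciferase expression after 8 hours of MG132 stress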
T1 sequence (P38532 whole entry): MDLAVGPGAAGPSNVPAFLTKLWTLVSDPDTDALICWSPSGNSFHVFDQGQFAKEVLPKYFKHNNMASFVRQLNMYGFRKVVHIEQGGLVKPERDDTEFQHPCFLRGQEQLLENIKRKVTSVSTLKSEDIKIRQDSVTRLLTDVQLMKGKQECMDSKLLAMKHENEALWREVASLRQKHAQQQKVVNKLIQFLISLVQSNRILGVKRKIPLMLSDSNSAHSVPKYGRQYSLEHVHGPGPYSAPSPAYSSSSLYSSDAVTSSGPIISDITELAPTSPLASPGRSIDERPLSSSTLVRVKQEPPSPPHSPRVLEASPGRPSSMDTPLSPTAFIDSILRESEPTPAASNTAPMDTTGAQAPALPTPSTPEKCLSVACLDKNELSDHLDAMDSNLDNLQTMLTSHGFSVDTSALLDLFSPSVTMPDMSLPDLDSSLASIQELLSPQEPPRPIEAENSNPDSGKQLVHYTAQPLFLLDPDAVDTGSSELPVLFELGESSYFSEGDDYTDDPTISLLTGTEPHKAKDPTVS

[4] = HEK293 cell cytotoxicity, dose response, cytotoxicity control, plate reader, cherry-picked samples (AID 743446); format: functional, cell-based
[5] = Luminescence Cell-Based Dose Response HTS to Identify Inhibitors of 5'UTR Stem-Loop Driven Prion Protein mRNA Translation in H4 Neuroglioblastoma Cells. [Related pubchem assays: 1827 (Project Summary), 1813 (Primary HTS)]; format: functional
cells = format: functional, cell-based
[6] = Shn3 3'UTR reporter inhibitors, dose response, cell-based, Clone20 osteoblasts, firefly luciferase, cherry-picked (AID 624132); format: functional;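 also: firefly luciferase luminescence from reporter carrying the Shn3 3'UTR in osteoblasts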
[7] = inhibitors of SNCA 5'UTR-driven translation, confirmation, luminescence, H4 neuroglioblastoma cells, dose confirmation (AID 2454); format: functional, cell-based;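 also: H4 neuroglioblastoma cells carrying an alpha-synuclein 5'UTR luciferase reporter; potency for inhibition of the luciferase signal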
[8] = HepG2 cell cytotoxicity, dose response, cytotoxicity control, plate reader, cherry-pick, antagonist series (AID 743416); format: functional, cell-based
[9] = control 3'UTR Renilla luciferase suppression, dose response, counter-screen for Shn3 inhibitor project, cell-based, Clone20-Shn3RL, cherry-picked (AID 624133); format: functional
[10] = MC4R antagonists, dose response, counter-screen for LGR2 antagonist project, cell-based, plate reader, cherry pick (AID 743444); format: functional;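 also: transfected HEK 293 cells stimulated with alpha-MSH peptide; potency of inhibitors of the alpha-MSH evoked signal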
Leucine aminopeptidase = target: T2, Leucine aminopeptidase (Plasmodium falciparum 3D7, UniProt Q8IL11); test: P. falciparum M17LAP inhibitors, primary screen, biochemical, fluorogenic H-Leu-NHMec substrate, 1536-well (AID 1619); format: functional
T2 sequence (Q8IL11 whole entry): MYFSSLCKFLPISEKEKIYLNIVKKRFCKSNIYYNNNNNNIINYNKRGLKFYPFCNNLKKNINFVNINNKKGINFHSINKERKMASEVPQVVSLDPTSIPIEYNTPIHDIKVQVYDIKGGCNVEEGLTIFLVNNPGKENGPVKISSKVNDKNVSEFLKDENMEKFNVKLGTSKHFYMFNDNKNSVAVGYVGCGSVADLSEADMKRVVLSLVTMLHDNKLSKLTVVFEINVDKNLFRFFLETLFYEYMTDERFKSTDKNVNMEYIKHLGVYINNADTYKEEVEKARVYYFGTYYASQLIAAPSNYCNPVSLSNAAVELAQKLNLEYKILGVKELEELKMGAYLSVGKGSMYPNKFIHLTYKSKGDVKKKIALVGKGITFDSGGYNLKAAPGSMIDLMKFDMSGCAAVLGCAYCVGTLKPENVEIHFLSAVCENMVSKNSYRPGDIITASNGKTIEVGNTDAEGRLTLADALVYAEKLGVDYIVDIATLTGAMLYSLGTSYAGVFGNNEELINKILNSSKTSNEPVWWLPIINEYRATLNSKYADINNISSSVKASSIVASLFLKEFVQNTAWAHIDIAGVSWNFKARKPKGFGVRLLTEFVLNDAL

[11] = A549 cell cytotoxicity, dose response, cytotoxicity control, plate reader, cherry-pick, antagonist series (AID 743412); format: functional, cell-based
[12] = inhibitors of SNCA 5'UTR-driven reporter translation, confirmation, H4 neuroglioma cells, luminescence (AID 1988); format: functional, cell-based
[13] = HepG2 cell cytotoxicity, dose response, cytotoxicity control for Shn3 inhibitor project, CellTiter-Glo, cherry-picked (AID 624134); format: functional, cell-based
[14] = inhibitors of firefly luciferase expression or activity, dose response, H4 neuroglioma cells, luminescence (AID 1990); format: functional, cell-based
BJ [15] = test: cytotoxicity toward Ras-transformed BJeLR fibroblasts, dose response, cell-based, alamar blue fluorescence, cherrypicked samples (AID 2631); format: functional; settings: Homo sapiens;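 also: confirmatory dose-response assay in RAS-dependent BJ fibroblasts engineered with TERT, LT and ST, with cytotoxicity read by fluorescence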
[16] = target: Luciferin 4-monooxygenase (Photinus pyralis, UniProt P08659); test: Counter Screen for Luciferase-based Assay Positives. [Related pubchem assays: 620, 618, 411 ]
HT-1080 = test: cytotoxicity in HT1080 fibrosarcoma cells, cell-based, fluorescence readout (AID 620); format: functional; settings: Homo sapiens
HEK293 = test: inhibitors of LMP1-driven NF-kB reporter, dose response, cell-based, HEK293, luciferase, cherry-pick (AID 588343); format: functional; settings: Homo sapiens
[17] = target: Peroxisome proliferator-activated receptor gamma/Nuclear receptor coactivator 2 (Homo sapiens, UniProt P37231); format: functional;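 also: agonist potency for raising coactivator recruitment to the receptor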
[18] = target: Peroxisome proliferator-activated receptor gamma/Nuclear receptor coactivator 3 (Homo sapiens, UniProt P37231); format: functional;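 also: agonist potency for raising coactivator recruitment to the receptor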
[19] = target: Peroxisome proliferator-activated receptor gamma/Nuclear receptor coactivator 1 (Homo sapiens, UniProt P37231); format: functional;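 also: agonist potency as compounds enhance coactivator SRC-1 recruitment to PPARgamma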
[20] = target: T3, Neuropeptide Y receptor type 2 (Homo sapiens, UniProt P49146); format: functional, cell-based;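 also: HEK293 cells expressing the receptor and a CNG channel; stimulus was NPY near EC95 followed by isoproterenol to raise cAMP; antagonist potency measured as restoring cAMP signal that NPY suppresses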
T3 sequence (P49146 whole entry): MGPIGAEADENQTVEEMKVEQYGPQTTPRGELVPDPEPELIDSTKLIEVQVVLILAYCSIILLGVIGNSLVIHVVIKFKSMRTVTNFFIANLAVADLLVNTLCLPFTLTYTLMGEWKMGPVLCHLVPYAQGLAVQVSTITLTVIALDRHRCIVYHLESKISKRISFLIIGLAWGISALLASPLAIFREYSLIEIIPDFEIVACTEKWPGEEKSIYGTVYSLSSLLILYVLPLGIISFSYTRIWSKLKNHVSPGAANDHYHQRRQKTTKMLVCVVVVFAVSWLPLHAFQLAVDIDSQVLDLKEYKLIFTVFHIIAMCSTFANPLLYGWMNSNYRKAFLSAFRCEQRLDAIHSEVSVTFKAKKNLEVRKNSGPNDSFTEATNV

[21] = target: T4, Neuropeptide Y receptor type 1 (Homo sapiens, UniProt P25929); format: functional;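 also: HEK293 cells with a CNG channel challenged with NPY then isoproterenol; potency as antagonist that reverses NPY suppression of cAMP signal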
T4 sequence (P25929 whole entry): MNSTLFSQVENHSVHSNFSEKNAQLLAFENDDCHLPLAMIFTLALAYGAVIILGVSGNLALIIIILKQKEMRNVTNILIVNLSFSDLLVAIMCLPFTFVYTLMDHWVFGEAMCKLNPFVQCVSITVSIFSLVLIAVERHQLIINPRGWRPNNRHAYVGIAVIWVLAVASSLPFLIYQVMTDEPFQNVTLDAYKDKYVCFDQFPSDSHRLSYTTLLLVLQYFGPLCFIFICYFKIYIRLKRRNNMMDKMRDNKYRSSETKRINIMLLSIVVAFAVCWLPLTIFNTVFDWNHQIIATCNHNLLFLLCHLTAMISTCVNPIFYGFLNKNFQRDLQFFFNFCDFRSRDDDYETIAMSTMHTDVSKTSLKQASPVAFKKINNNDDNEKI

[22] = cytotoxicity toward DRD oncogenic fibroblasts, dose response, cell-based, non-viral oncogenic, luminescence (AID 1934); format: functional; settings: Homo sapiens
BJ [23] = test: cytotoxicity toward BJ-TERT fibroblasts, dose response, cell-based, RAS-independent, luminescence (AID 1933); format: functional; settings: Homo sapiens
BJ [24] = test: cells; format: functional, cell-based; settings: Homo sapiens
[25] = target: T5, Alkaline phosphatase, tissue-nonspecific isozyme (Homo sapiens, UniProt P05186)
T5 sequence (P05186 whole entry): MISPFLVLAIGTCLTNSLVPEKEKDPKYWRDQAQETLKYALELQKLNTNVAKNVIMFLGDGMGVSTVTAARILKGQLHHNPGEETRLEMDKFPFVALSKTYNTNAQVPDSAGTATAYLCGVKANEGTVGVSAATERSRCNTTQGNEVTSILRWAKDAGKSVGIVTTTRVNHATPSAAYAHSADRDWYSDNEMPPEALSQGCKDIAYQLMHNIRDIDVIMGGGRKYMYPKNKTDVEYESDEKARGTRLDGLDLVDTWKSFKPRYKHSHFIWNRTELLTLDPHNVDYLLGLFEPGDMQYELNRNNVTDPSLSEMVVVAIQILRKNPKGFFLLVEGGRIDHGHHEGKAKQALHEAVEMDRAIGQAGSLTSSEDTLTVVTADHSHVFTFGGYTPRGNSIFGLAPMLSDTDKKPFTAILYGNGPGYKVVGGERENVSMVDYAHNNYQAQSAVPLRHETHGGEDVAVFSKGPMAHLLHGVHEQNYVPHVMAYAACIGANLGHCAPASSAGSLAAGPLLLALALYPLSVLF

BJ [26] = test: cytotoxicity toward BJ-TERT-LT-ST fibroblasts, dose response, cell-based, RAS-independent, luminescence (AID 1935); format: functional; settings: Homo sapiens;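 also: BJ fibroblasts immortalized with TERT plus LT and ST oncogenes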
Cytochrome P450 2C9 = Cytochrome P450 2C9 (Homo sapiens, UniProt P11712); settings: Potency
Cytochrome P450 3A4 = Cytochrome P450 3A4 (Homo sapiens, UniProt P08684); settings: Potency;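 also: confirmatory qHTS run detecting inhibitors and substrates of CYP3A4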
Cytochrome P450 2D6 = Cytochrome P450 2D6 (Homo sapiens, UniProt P10635); test: qHTS Assay for Inhibitors and Substrates of Cytochrome P450 2D6. [Related pubchem assays: 410 ]; format: ADME; settings: read-out: Potency
Cytochrome P450 2C19 = Cytochrome P450 2C19 (Homo sapiens, UniProt P33261); test: qHTS Assay for Inhibitors and Substrates of Cytochrome P450 2C19. [Related pubchem assays: 410 ]; format: ADME; settings: read-out: Potency
[27] = Luminescence-based dose response cell-based high throughput screening assay for cytotoxic compounds using the IEC-6 intestinal epithelial cell line. [Related pubchem assays: 1858 (Summary AID.), 1825 (Counterscreen.), 1907 (Confirmation screen.)]; format: functional

Sequence of Luciferin 4-monooxygenase (P08659 whole entry): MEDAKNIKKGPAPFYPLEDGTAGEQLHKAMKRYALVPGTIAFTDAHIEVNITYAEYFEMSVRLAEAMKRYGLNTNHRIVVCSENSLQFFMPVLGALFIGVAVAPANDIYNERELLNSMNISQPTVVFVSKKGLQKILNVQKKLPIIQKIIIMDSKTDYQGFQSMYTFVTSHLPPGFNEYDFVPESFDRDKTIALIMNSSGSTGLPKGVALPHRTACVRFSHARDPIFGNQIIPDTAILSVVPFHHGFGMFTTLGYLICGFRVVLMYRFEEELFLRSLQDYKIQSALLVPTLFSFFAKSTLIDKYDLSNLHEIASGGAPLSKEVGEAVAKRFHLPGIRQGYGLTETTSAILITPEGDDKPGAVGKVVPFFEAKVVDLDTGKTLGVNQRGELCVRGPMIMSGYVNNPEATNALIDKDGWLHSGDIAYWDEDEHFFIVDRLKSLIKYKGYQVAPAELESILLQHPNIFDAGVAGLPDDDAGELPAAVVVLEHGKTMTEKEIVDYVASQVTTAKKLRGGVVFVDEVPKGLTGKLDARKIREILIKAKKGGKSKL
Sequence of Cytochrome P450 2C9 (P11712 whole entry): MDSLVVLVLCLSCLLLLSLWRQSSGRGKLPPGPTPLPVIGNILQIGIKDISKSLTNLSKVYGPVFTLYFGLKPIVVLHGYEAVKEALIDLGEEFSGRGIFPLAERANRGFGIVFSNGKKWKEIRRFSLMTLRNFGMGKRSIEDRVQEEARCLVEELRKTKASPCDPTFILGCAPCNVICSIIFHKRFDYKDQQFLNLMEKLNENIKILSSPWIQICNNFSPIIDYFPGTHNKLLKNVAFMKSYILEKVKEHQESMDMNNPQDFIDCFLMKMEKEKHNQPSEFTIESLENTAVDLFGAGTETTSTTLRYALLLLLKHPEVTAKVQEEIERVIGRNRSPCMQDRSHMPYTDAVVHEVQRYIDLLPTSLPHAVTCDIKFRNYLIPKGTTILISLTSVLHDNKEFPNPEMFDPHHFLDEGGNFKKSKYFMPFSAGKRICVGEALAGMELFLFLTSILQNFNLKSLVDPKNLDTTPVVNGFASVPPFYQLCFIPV
Sequence of Cytochrome P450 3A4 (P08684 whole entry): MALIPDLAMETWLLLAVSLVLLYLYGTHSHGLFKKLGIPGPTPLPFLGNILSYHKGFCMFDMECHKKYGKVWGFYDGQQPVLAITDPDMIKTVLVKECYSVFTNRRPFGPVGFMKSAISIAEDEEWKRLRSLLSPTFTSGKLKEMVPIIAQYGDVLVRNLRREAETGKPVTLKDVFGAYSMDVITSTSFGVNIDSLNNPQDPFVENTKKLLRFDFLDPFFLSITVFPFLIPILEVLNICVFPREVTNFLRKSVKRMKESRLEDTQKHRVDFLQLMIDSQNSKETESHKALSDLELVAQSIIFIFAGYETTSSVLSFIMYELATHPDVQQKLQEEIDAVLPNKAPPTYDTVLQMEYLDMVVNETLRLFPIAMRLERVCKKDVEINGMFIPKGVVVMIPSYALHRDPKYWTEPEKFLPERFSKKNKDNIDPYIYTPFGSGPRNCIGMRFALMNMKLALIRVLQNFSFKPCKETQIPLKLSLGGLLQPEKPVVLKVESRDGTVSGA
Sequence of Peroxisome proliferator-activated receptor gamma/Nuclear receptor coactivator 3 (P37231 whole entry): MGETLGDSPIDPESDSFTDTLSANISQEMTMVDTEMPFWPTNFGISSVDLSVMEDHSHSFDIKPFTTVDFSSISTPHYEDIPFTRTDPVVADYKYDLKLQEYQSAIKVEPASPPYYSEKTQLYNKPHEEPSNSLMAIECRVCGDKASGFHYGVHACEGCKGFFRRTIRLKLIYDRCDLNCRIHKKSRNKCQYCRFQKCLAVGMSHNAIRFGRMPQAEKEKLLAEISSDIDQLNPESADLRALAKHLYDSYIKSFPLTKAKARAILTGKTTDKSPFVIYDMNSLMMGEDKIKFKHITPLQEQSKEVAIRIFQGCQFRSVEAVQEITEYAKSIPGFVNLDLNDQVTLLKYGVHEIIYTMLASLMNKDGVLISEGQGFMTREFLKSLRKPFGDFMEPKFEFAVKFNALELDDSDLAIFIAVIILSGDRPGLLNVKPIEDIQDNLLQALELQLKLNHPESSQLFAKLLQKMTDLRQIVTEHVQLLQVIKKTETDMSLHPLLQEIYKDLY
Sequence of Peroxisome proliferator-activated receptor gamma/Nuclear receptor coactivator 3 (Q9Y6Q9 whole entry, further chain): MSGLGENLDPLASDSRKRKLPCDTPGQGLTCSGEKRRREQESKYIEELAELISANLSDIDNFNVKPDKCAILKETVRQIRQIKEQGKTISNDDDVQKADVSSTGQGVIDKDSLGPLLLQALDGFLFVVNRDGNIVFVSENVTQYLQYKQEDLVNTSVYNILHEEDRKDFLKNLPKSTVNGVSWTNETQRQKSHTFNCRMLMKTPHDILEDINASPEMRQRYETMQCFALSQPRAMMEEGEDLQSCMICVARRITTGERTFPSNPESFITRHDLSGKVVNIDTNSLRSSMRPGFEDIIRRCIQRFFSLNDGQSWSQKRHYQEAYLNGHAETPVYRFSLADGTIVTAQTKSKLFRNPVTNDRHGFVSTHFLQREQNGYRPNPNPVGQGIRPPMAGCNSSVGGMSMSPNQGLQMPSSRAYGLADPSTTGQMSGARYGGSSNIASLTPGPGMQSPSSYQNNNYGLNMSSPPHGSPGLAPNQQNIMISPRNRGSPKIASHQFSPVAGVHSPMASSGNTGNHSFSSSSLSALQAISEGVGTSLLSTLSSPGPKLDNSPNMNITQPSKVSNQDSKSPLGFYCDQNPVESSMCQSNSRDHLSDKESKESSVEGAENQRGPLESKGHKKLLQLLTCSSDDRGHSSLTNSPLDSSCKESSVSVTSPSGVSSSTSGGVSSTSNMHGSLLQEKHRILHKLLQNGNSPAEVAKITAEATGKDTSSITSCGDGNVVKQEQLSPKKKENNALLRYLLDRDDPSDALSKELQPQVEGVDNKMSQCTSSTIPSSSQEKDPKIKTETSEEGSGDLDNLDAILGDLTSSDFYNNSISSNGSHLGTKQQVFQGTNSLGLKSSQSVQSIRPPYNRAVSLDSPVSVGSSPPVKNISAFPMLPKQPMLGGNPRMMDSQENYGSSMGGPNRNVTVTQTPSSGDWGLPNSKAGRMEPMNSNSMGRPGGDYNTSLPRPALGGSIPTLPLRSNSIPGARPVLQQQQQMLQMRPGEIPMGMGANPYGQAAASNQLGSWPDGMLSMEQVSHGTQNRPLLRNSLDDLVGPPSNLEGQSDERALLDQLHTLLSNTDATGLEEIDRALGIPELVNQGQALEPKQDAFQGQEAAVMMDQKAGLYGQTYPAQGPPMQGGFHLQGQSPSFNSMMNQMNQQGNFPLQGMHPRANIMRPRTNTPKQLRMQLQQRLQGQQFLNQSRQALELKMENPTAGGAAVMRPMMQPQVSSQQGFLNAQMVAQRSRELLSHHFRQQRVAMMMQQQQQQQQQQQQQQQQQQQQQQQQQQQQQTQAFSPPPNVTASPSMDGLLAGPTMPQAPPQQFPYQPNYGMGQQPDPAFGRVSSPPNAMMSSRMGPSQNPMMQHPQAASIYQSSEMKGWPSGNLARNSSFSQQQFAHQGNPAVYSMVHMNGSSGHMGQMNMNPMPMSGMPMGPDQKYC
Sequence of Cytochrome P450 2C19 (P33261 whole entry): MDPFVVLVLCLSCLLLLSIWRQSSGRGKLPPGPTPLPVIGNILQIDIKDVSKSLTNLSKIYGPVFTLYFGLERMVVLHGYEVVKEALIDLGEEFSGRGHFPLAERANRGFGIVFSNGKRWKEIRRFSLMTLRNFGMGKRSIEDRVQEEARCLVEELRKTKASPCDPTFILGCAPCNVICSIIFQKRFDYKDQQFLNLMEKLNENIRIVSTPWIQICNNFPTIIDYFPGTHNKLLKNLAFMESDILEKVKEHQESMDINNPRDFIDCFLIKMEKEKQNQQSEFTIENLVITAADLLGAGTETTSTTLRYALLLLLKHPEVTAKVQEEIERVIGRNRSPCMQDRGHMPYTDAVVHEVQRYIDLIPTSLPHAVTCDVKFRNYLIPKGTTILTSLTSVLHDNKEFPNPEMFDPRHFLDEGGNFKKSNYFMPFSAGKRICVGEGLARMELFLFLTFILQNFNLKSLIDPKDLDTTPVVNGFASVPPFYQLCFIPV
Sequence of Cytochrome P450 2D6 (P10635 whole entry): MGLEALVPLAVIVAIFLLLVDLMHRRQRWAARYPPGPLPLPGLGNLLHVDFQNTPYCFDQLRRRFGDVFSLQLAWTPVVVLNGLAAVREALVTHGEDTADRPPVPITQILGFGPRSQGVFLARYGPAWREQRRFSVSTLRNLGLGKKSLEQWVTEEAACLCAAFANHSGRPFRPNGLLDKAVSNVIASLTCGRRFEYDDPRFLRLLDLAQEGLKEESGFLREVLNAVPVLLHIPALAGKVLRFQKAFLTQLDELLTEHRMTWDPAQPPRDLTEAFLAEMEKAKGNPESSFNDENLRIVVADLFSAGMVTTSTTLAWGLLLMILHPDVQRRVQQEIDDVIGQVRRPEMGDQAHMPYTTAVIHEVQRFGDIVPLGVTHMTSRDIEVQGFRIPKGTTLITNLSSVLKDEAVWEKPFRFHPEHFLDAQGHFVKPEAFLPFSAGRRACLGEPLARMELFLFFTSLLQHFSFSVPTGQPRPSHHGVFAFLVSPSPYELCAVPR

O=C(Nc1nc(-c2ccc(Cl)cc2)cs1)c1ccccc1Cl
active: CC50 (Vero) > 40 µM

CCOc1ccc(OCc2cccc(C(=O)O)c2)cc1
inactive: EC50 (BJ [15]) > 133 µM
active: AC50 [1] 118 nM | EC50 [2] 72 nM | EC50 [3] < 160 nM | AC50 [4] 18.9 µM | EC50 [5] < 0.1 µM | EC50 (cells) 101 nM | AC50 [6] 649 nM | EC50 [7] 38 nM | AC50 [8] 31 µM | AC50 [9] 21.4 µM | AC50 [10] 137 nM | IC50 (Leucine aminopeptidase) 24.8 µM | AC50 [11] 21.7 µM | EC50 [12] < 100 nM | AC50 [13] 16.9 µM | EC50 [14] < 0.1 µM

O=C(Nc1ccc(CN2CCOCC2)cc1)c1cc2ccccn2n1
active: AC50 [1] 2600 nM | AC50 [4] 36 µM | EC50 [16] 71.5 µM | AC50 (HEK293) 3.01 µM | AC50 [10] 5820 nM
inactive: AC50 [8] > 52 µM | AC50 [11] > 52 µM
> 50 µM (not active): EC50 (HT-1080)

CC1=NN(C(=O)Cn2ccc([N+](=O)[O-])n2)C(O)(C(F)(F)F)C1 (stereo not given)
> 79.4 µM (not active): EC50 [17] | EC50 [18] | EC50 [19]

COc1cccc(-c2ccc(C#N)c(SCC(=O)NCCc3ccc(Cl)cc3)n2)c1
active: IC50 [20] 6.45 µM | IC50 [21] 4.58 µM

COc1cccc2sc(Nc3nc4ccc(NC(C)=O)cc4s3)nc12
active: EC50 [5] 12.6 µM | EC50 [22] 30 µM | EC50 (BJ [23]) 67.8 µM | EC50 (BJ [24]) 28.2 µM | EC50 [12] 10700 nM
> 100 µM (not active): EC50 [25]
> 150 µM (not active): EC50 (BJ [26])
> 120 µM (not active): EC50 [14]

c1ccc(-c2cnc(-c3ccccc3)nc2)cc1
> 50 µM (not active): EC50 (HT-1080)
active: EC50 [16] 14.3 µM

COC(=O)C(/C=C/C(C)Cc1cc(Br)cc(OCc2ccccc2)c1OC)OCc1ccccc1 (stereo not given)
inconclusive: AC50 (Cytochrome P450 2C9) 3.16 µM | AC50 (Cytochrome P450 3A4) 3.16 µM

COC(=O)NC(/C(C(=O)OC)=C(\C)NCc1ccccc1)c1ccccc1 (stereo not given)
inconclusive: AC50 (Cytochrome P450 2D6) 3.98 µM | AC50 (Cytochrome P450 2C19) 7.9 nM | AC50 (Cytochrome P450 2C9) 3.16 µM | AC50 (Cytochrome P450 3A4) 3.98 µM

CCOC(=O)c1cnc2c(C)c(Cl)ccc2c1N1CCOCC1
> 79.4 µM (not active): EC50 [17] | EC50 [18] | EC50 [19]

Cc1cccc2cc(C#N)c(SCC(=O)N3CC(=O)Nc4ccccc43)nc12
inconclusive: EC50 (BJ [23]) 0.583 µM
active: EC50 [2] 1590 nM | EC50 (cells) 2360 nM | EC50 [22] 0.804 µM | EC50 [7] 1420 nM | EC50 (BJ [24]) 18 µM | IC50 [27] 580 nM | EC50 (BJ [26]) 0.46 µM | EC50 [12] < 100 nM | EC50 (BJ [15]) < 0.104 µM
